Tests used:
Glutamate, Kainate = experiment: Radioligand binding assay No. 232700; settings: test substance 10 μM; rat
Purinergic P2X = experiment: Radioligand binding assay No. 268700; settings: test substance 10 μM; rabbit
[1] = tested on: kinases listed in Table 3; experiment: Kinase selectivity, whole panel of Table 3; type: biochemical; settings: summary in words
Description: Object: In this assay, the inhibitory activity of the test substance on the kinases listed in Table 3 was determined, and therefore the selectivity of the present compound was determined.
Except for the BRAF V600E kinase in Table 3, the Mobility shift assay was used for other kinases.
• 1.1 1-fold kinase buffer without MnCl2: 50 mM HEPES, pH 7.5, 0.0015% Brij-35, 10 mM MgCl2, 2 mM DTT. • 1.2 1-fold kinase buffer with MnCl2: 50 mM HEPES, pH 7.5, 0.0015% Brij-35, 10 mM MgCl2, 10 mM MnCl2, 2 mM DTT. • 1.3 Termination solution: 100 mM HEPES, pH 7.5, 0.0015% Brij-35, 0.2% Coating Reagent#3, 50 mM EDTA. • 1.4 2.5-fold kinase solution: The kinase was added to the 1-fold kinase buffer to form a 2.5-fold kinase solution. • 1.5 2.5-fold substrate solution: FAM fluorescence-labelled polypeptide and ATP were added to the 1-fold kinase buffer to form a 2.5-fold substrate solution. 2. Preparation of 5-fold compound
The final test concentration of the compound was 10 μM at maximum. Firstly, a 50-fold concentration (i.e. 500 μM) was prepared with 100% DMSO. The compound was diluted with 100% DMSO by 5 folds at 5 concentrations (successively 500 μM, 100 μM, 20 μM, 4 μM, and 0.8 μM). […]
• 3.1 To the 384-well reaction plate was added 5-fold compound dissolved in 10% DMSO at 5 μl/well. • 3.2 To the 384-well reaction plate was added 2.5-fold kinase solution at 10 μl/well. […] The conversion was read from Caliper. […]

Adrenergic β1 = Adrenergic β1 (Homo sapiens (Human), UniProt P08588); experiment: Radioligand binding assay No. 204010; settings: test substance 10 μM, read-out: Inhibitory rate (%), Adrenergic β1
Adrenergic β1, sequence (P08588 whole entry): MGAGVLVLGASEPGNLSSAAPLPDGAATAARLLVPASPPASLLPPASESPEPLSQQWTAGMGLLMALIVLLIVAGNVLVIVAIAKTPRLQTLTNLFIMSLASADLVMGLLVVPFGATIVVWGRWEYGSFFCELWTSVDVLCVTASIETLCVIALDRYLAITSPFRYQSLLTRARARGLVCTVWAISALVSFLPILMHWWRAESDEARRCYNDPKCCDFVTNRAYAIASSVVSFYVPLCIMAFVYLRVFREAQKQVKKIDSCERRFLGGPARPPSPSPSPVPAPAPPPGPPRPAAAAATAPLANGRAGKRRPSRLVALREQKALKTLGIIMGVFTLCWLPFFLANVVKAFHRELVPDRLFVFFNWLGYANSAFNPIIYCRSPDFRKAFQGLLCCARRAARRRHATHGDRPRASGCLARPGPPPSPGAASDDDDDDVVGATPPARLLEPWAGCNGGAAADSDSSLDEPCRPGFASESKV

For `Nc1ccc(-c2ccc3ncc4c(=O)[nH]c(=O)n(-c5cccc(C(F)(F)F)c5)c4c3n2)cn1` [Compound 5, 9-(6-aminopyridin-3-yl)-1-(3-(trifluoromethyl)phenyl)pyrimido[5,4-c][1,5]naphthyridine-2,4(1H,3H)-dione], the “Inhibitory rate (%), Glutamate, Kainate” value (Glutamate, Kainate) was 35%, the “Inhibitory rate (%), Purinergic P2X” value (Purinergic P2X) was 9% and the “inhibitory activity for the kinases listed in Table 3” value [1] was “no inhibitory activity”. For the same compound, the inhibition at 10 µM (Adrenergic β1) was 0%.
